Experimental data reported in patent US9873709B2 (priority 2013, dated 2018).

test system: JAK1-dependent STAT6 phosphorylation downstream of IL-13 stimulation in TF-1 human erythroleukemia cells; test: cells; conditions: TF-1, read-out: IL-13-pSTAT6 IC50

Row | IC50 [nM] | SMILES
1 | 22.6 | O=C(c1ccc(Nc2nc3c(N4CCC(O)(c5ccc(Cl)cc5)CC4)cccn3n2)cc1)N1CCN2CCCC2C1 (stereo not drawn) [Example 1-168, 3,4,6,7,8,8a-hexahydro-1H-pyrrolo[1,2-a]pyrazin-2-yl-[4-[[8-[4-(4-chlorophenyl)-4-hydroxy-1-piperidyl]-[1,2,4]triazolo[1,5-a]pyridin-2-yl]amino]phenyl] methanone]
2 | 279 | O=C(NC1CCNC1)c1ccc(Nc2nc3c(N4CCC(O)(c5ccc(Cl)cc5)CC4)cccn3n2)cc1 (stereo not drawn) [Example 1-176, 4-[[8-[4-(4-chlorophenyl)-4-hydroxy-1-piperidyl]-[1,2,4]triazolo[1,5-a]pyridin-2-yl]amino]-N-pyrrolidin-3-yl-benzamide]
3 | 84.3 | O=C(NC1CCCNC1)c1ccc(Nc2nc3c(N4CCC(O)(c5ccc(Cl)cc5)CC4)cccn3n2)cc1 (stereo not drawn) [Example 1-179, 4-[[8-[4-(4-chlorophenyl)-4-hydroxy-1-piperidyl]-[1,2,4]triazolo[1,5-a]pyridin-2-yl]amino]-N-(3-piperidyl)benzamide]
4 | 322 | O=C(NCC1CCNC1)c1ccc(Nc2nc3c(N4CCC(O)(c5ccc(Cl)cc5)CC4)cccn3n2)cc1 (stereo not drawn) [Example 1-180, 4-[[8-[4-(4-chlorophenyl)-4-hydroxy-1-piperidyl]-[1,2,4]triazolo[1,5-a]pyridin-2-yl]amino]-N-(pyrrolidin-3-ylmethyl)benzamide]
5 | 181 | O=C(NC1CCNCC1)c1ccc(Nc2nc3c(N4CCC(O)(c5ccc(Cl)cc5)CC4)cccn3n2)cc1 [Example 1-181, 4-[[8-[4-(4-chlorophenyl)-4-hydroxy-1-piperidyl]-[1,2,4]triazolo[1,5-a]pyridin-2-yl]amino]-N-(4-piperidyl)benzamide]
6 | 536 | O=C(NCC1CCCNC1)c1ccc(Nc2nc3c(N4CCC(O)(c5ccc(Cl)cc5)CC4)cccn3n2)cc1 (stereo not drawn) [Example 1-183, 4-[[8-[4-(4-chlorophenyl)-4-hydroxy-1-piperidyl]-[1,2,4]triazolo[1,5-a]pyridin-2-yl]amino]-N-(3-piperidylmethyl) benzamide]
7 | 127 | O=C(NCC1CCNCC1)c1ccc(Nc2nc3c(N4CCC(O)(c5ccc(Cl)cc5)CC4)cccn3n2)cc1 [Example 1-184, 4-[[8-[4-(4-chlorophenyl)-4-hydroxy-1-piperidyl]-[1,2,4]triazolo[1,5-a]pyridin-2-yl]amino]-N-(4-piperidylmethyl)]
8 | 462 | O=C(NCCN1CCNCC1)c1ccc(Nc2nc3c(N4CCC(O)(c5ccc(Cl)cc5)CC4)cccn3n2)cc1 [Example 1-187]
9 | 34.7 | O=C(NCC1CNCCO1)c1ccc(Nc2nc3c(N4CCC(O)(c5ccc(Cl)cc5)CC4)cccn3n2)cc1 (stereo not drawn) [Example 1-188, 4-[[8-[4-(4-chlorophenyl)-4-hydroxy-1-piperidyl]-[1,2,4]triazolo[1,5-a]pyridin-2-yl]amino]-N-(morpholin-2-ylmethyl)benzamide]
10 | 249 | NCC1CCN(C(=O)c2ccc(Nc3nc4c(N5CCC(O)(c6ccc(Cl)cc6)CC5)cccn4n3)cc2)CC1 [Example 1-193, [4-(aminomethyl)-1-piperidyl]-[4-[[8-[4-(4-chlorophenyl)-4-hydroxy-1-piperidyl]-[1,2,4]triazolo[1,5-a]pyridin-2-yl]amino]phenyl] methanone]
11 | 53.1 | O=C(c1ccc(Nc2nc3c(N4CCC(O)(c5ccc(Cl)cc5)CC4)cccn3n2)cc1)N1CCNCC1CO (stereo not drawn) [Example 1-196, [4-[[8-[4-(4-chlorophenyl)-4-hydroxy-1-piperidyl]-[1,2,4]triazolo[1,5-a]pyridin-2-yl]amino]phenyl]-[2-(hydroxymethyl)piperazin-1-yl]methanone]
12 | 158 | O=C(c1ccc(Nc2nc3c(N4CCC(O)(c5ccc(Cl)cc5)CC4)cccn3n2)cc1)N1CC2CNCC2C1 (stereo not drawn) [Example 1-197, 2,3,3a,4,6,6a-hexahydro-1H-pyrrolo[3,4-c]pyrrol-5-yl-[4-[[8-[4-(4-chlorophenyl)-4-hydroxy-1-piperidyl]-[1,2,4]triazolo[1,5-a]pyridin-2-yl]amino]phenyl] methanone]
13 | 68.5 | O=C(N[C@H]1CCCNC1)c1ccc(Nc2nc3c(N4CCC(O)(c5ccc(Cl)cc5)CC4)cccn3n2)cc1 [Example 1-198, 4-[[8-[4-(4-chlorophenyl)-4-hydroxy-1-piperidyl]-[1,2,4]triazolo[1,5-a]pyridin-2-yl]amino]-N-[(3S)-3-piperidyl]benzamide]
14 | 106 | O=C(c1ccc(Nc2nc3c(N4CCC(O)(c5ccc(Cl)cc5)CC4)cccn3n2)cc1)N1CC2(CCNCC2)C1 [Example 1-199, [4-[[8-[4-(4-chlorophenyl)-4-hydroxy-1-piperidyl]-[1,2,4]triazolo[1,5-a]pyridin-2-yl]amino]phenyl]-(2,7-diazaspiro[3.5]nonan-2-yl)methanone]
15 | 342 | O=C(c1ccc(Nc2nc3c(N4CCC(O)(c5ccc(Cl)cc5)CC4)cccn3n2)cc1)N1CC2(CNC2)C1 [Example 1-203, [4-[[8-[4-(4-chlorophenyl)-4-hydroxy-1-piperidyl]-[1,2,4]triazolo[1,5-a]pyridin-2-yl]amino]phenyl]-(2,6-diazaspiro[3.3]heptan-2-yl)methanone]
16 | 522 | O=C(c1ccc(Nc2nc3c(N4CCC(O)(c5ccc(Cl)cc5)CC4)cccn3n2)cc1)N1CCC2(CNC2)C1 [Example 1-205, [4-[[8-[4-(4-chlorophenyl)-4-hydroxy-1-piperidyl]-[1,2,4]triazolo[1,5-a]pyridin-2-yl]amino]phenyl]-(2,6-diazaspiro[3.4]octan-6-yl)methanone]
17 | 192 | O=C(c1ccc(Nc2nc3c(N4CCC(O)(c5ccc(Cl)cc5)CC4)cccn3n2)cc1)N1CCC2(CCNC2)C1 (stereo not drawn) [Example 1-207, [4-[[8-[4-(4-chlorophenyl)-4-hydroxy-1-piperidyl]-[1,2,4]triazolo[1,5-a]pyridin-2-yl]amino]phenyl]-(2,7-diazaspiro[4.4]nonan-2-yl)methanone]
18 | 43.5 | O=C(c1ccc(Nc2nc3c(N4CCC(O)(c5ccc(Cl)cc5)CC4)cccn3n2)cc1)N1CC2(CCCNC2)C1 [Example 1-210, [4-[[8-[4-(4-chlorophenyl)-4-hydroxy-1-piperidyl]-[1,2,4]triazolo[1,5-a]pyridin-2-yl]amino]phenyl]-(2,8-diazaspiro[3.5]nonan-2-yl)methanone]
19 | 196 | O=C(c1ccc(Nc2nc3c(N4CCC(O)(c5ccc(Cl)cc5)CC4)cccn3n2)cc1)N1CCC2(CCCNC2)C1 (stereo not drawn) [Example 1-212, [4-[[8-[4-(4-chlorophenyl)-4-hydroxy-1-piperidyl]-[1,2,4]triazolo[1,5-a]pyridin-2-yl]amino]phenyl]-(2,9-diazaspiro[4.5]decan-2-yl)methanone]
20 | 165 | O=C(c1ccc(Nc2nc3c(N4CCC(O)(c5ccc(Cl)cc5)CC4)cccn3n2)cc1)N1CCC2(CCNCC2)CC1 [Example 1-218, [4-[[8-[4-(4-chlorophenyl)-4-hydroxy-1-piperidyl]-[1,2,4]triazolo[1,5-a]pyridin-2-yl]amino]phenyl]-(3,9-diazaspiro[5.5]undecan-3-yl)methanone]
21 | 637 | O=C(NCC1COC2(CCNCC2)C1)c1ccc(Nc2nc3c(N4CCC(O)(c5ccc(Cl)cc5)CC4)cccn3n2)cc1 (stereo not drawn) [Example 1-220, 4-[[8-[4-(4-chlorophenyl)-4-hydroxy-1-piperidyl]-[1,2,4]triazolo[1,5-a]pyridin-2-yl]amino]-N-(1-oxa-8-azaspiro[4.5]decan-3-ylmethyl)benzamide]
